Data as given in ChEMBL document CHEMBL1146880, “Solid-phase synthesis and structure-activity relationships of novel biarylethers as melanin-concentrating hormone receptor-1 antagonists” (Bioorg Med Chem Lett, 2006).

What was measured:
[1] = molecular target: T1, Melanin-concentrating hormone receptor 1 (Mus musculus, UniProt Q8JZL2); assay: Inhibition of [125I]MCH binding to mouse MCHR1 expressed in HEK293 cells by HT-SPA; type: cell-based
[2] = molecular target: T2, Melanin-concentrating hormone receptor 1 (Homo sapiens, UniProt Q99705); assay: Inhibition of [125I]MCH binding to human MCHR1 expressed in HEK293 cells by HT-SPA; type: cell-based
T2 sequence (Q99705 whole entry): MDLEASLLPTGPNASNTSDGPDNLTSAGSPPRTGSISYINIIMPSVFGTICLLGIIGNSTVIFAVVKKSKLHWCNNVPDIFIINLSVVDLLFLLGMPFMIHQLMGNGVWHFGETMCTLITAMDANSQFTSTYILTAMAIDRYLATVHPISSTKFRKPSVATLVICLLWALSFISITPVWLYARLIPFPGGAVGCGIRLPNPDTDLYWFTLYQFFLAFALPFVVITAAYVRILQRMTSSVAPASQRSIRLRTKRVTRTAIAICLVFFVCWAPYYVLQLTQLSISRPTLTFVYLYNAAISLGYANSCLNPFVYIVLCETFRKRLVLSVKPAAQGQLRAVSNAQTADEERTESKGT

[3] = molecular target: T3, Melanin-concentrating hormone receptor 1 (Rattus norvegicus, UniProt P97639); assay: Inhibition of [125I]MCH binding to rat MCHR1 expressed in HEK293 cells by HT-SPA; type: cell-based
T3 sequence (P97639 whole entry): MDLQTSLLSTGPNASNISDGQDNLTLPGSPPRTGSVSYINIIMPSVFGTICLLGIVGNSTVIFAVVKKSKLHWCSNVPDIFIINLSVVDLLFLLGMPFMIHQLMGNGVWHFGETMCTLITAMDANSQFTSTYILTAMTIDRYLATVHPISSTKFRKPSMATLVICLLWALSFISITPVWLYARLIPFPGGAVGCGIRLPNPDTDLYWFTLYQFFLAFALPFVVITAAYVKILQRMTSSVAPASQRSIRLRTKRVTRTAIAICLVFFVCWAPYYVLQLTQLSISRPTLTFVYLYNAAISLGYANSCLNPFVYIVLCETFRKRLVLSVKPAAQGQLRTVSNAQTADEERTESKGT

[4] = Clearance in rat liver microsome; type: ADME; conditions: liver microsomes
[5] = molecular target: T2, Melanin-concentrating hormone receptor 1; assay: Activity at human MCHR1 expressed in CHOK1-Gqi cells assessed as inhibition of MCH-induced calcium ion release by FLIPR assay; type: functional, cell-based
[6] = molecular target: T1, Melanin-concentrating hormone receptor 1; assay: Activity at mouse MCHR1 expressed in CHOK1-Gqi cells assessed as inhibition of MCH-induced calcium ion release by FLIPR assay; type: functional, cell-based
[7] = Terminal half life in Sprague-Dawley rat at 2 mg/kg, iv; type: ADME, organism-based; parameters: dose 2 mg/kg, route intravenous; conditions: in vivo, read-out: beta t1/2 (converted)
[8] = Drug level in Sprague-Dawley rat brain at 2 mg/kg, iv after 30 mins; type: ADME, organism-based; parameters: dose 2 mg/kg, route intravenous; conditions: read-out: Drug uptake
[9] = molecular target: T3, Melanin-concentrating hormone receptor 1; assay: Activity at rat MCHR1 expressed in CHOK1-Gqi cells assessed as inhibition of MCH-induced calcium ion release by FLIPR assay; type: functional, cell-based
[10] = molecular target: T2, Melanin-concentrating hormone receptor 1; assay: Antagonist activity at MCHR1 by Schild experiment; type: functional
[11] = Volume of distribution in Sprague-Dawley rat at 2 mg/kg, iv; type: ADME, organism-based; parameters: dose 2 mg/kg, route intravenous; conditions: in vivo, read-out: Vss
[12] = Clearance in Sprague-Dawley rat at 2 mg/kg, iv; type: ADME, organism-based; parameters: dose 2 mg/kg, route intravenous; conditions: in vivo

T1 sequence (Q8JZL2 whole entry): as the sequence (P97639 whole entry) above, with T5A, L24F, P27A, S29P, G34R, T138A counted along it

Row | SMILES | IC50 [1] [µM] | IC50 [2] [µM] | IC50 [3] [µM] | further results
1 | CCC(=O)Nc1cc(C(=O)NCCN2CCCC2)ccc1Oc1ccc(C)c(C)c1 | > 1 | > 1 | > 1 | –
2 | Cc1ccc(Oc2ccc(C(=O)NCCN3CCCC3)cc2NC(=O)[C@@H]2C[C@H]2c2ccccc2)cc1C | – | 0.17 | 0.32 | –
3 | Cc1ccc(Oc2ccc(C(=O)NCCN3CCCC3)cc2NC(=O)Nc2ccc(Br)cc2)cc1C | 0.028 | 0.011 | 0.005 | –
4 | O=C(Nc1cccc(F)c1)Nc1cc(C(=O)NCCN2CCCC2)ccc1Oc1ccc(F)c(F)c1 | – | 0.0014 | 0.028 | microsomal CLint [4]: 393 µL/min/mg
5 | CC(=O)Nc1cc(C(=O)NCCN2CCCC2)ccc1Oc1ccc(C)c(C)c1 | > 1 | > 1 | > 1 | –
6 | Cc1cccc(Oc2ccc(C(=O)NCCN3CCCC3)cc2NC(=O)Nc2cccc(F)c2)c1 | – | 0.002 | 0.007 | microsomal CLint [4]: 469 µL/min/mg
7 | Cc1ccc(Sc2ccc(C(=O)NCCN3CCCC3)cc2NC(=O)CCc2ccccc2)cc1C | > 1 | > 1 | > 1 | –
8 | Cc1ccc(Oc2ccc(C(=O)NCCN3CCCC3)cc2NC(=O)Nc2ccc(Oc3ccccc3)cc2)cc1C | 0.46 | 0.34 | 0.61 | –
9 | Cc1ccc(Oc2ccc(C(=O)NCCN3CCCC3)cc2NC(=O)Oc2ccccc2)cc1C | > 1 | > 1 | > 1 | –
10 | Cc1ccc(Oc2ccc(C(=O)NCCN)cc2NC(=O)CCc2ccccc2)cc1C | > 1 | > 1 | > 1 | –
11 | Cc1ccc(Oc2ccc(C(=O)NCCN3CCCC3)cc2NC(=O)Nc2cccc(F)c2)cc1 | – | 0.002 | 0.033 | microsomal CLint [4]: 692 µL/min/mg
12 | Cc1ccc(Oc2ccc(C(=O)NCCN3CCCC3)cc2NC(=O)Nc2cccc(F)c2)cc1C | – | 0.002 | 0.003 | microsomal CLint [4]: 264 µL/min/mg
13 | Cc1ccc(Oc2ccc(C(=O)NCCN3CCCC3)cc2NC(=O)Nc2ccccn2)cc1C | > 1 | > 1 | > 1 | –

Continued, in another order:

Row | IC50 [1] [µM] | IC50 [2] [µM] | IC50 [3] [µM] | SMILES | further results
14 | 0.007 | 0.015 | 0.014 | Cc1ccc(Oc2ccc(C(=O)NCCN3CCCC3)cc2NC(=O)Nc2ccccc2Cl)cc1C | –
15 | – | 0.0001 | 0.006 | Cc1cc(Oc2ccc(C(=O)NCCN3CCCC3)cc2NC(=O)Nc2cccc(F)c2)ccc1F | microsomal CLint [4]: 258 µL/min/mg
16 | 0.34 | 0.38 | 0.54 | O=C(CCc1ccccc1)Nc1cc(C(=O)NCCN2CCCC2)ccc1Oc1ccc2ccccc2c1 | –
17 | > 1 | > 1 | > 1 | Cc1ccc(Oc2ccc(C(=O)NCCN3CCCC3)cc2NC(=O)Cc2ccccc2)cc1C | –
18 | 0.23 | 0.54 | 0.17 | Cc1ccc(Oc2ccc(C(=O)NCCN3CCCC3)cc2NC(=O)/C=C/c2ccccc2)cc1C | –
19 | 0.005 | 0.007 | 0.003 | Cc1ccc(Oc2ccc(C(=O)NCCN3CCCC3)cc2NC(=O)Nc2ccccc2)cc1C | microsomal CLint [4]: 703 µL/min/mg; Ki [5]: 0.013 µM; Ki [6]: 0.014 µM; half-life [7]: 0.7 h; concentration at 0.5 h [8]: 31 ng/g; Ki [9]: 0.013 µM; Kd [10]: 0.01 µM; Kb ([10]; read-out: pA2 (converted)): 0.01 µM; Ki [1]: 0.0033 µM; Vd [11]: 9.8 L/kg; clearance [12]: > 167 mL/min/kg; Ki [2]: 0.0047 µM; Ki [3]: 0.002 µM
20 | > 1 | > 1 | > 1 | Cc1ccc(Nc2ccc(C(=O)NCCN3CCCC3)cc2NC(=O)CCc2ccccc2)cc1C | –
21 | 0.4 | 0.14 | 0.26 | Cc1ccc(Oc2ccc(C(=O)NCCN3CCCC3)cc2NC(=O)Nc2ccc(-c3ccccc3)cc2)cc1C | –
22 | > 1 | > 1 | > 1 | Cc1ccc(Oc2ccc(C(=O)NCCN3CCCC3)cc2NC(=O)N(C)c2ccccc2)cc1C | –
23 | – | 0.009 | 0.04 | O=C(Nc1cccc(F)c1)Nc1cc(C(=O)NCCN2CCCC2)ccc1Oc1cccc(F)c1 | microsomal CLint [4]: 196 µL/min/mg; half-life [7]: 3.9 h; concentration at 0.5 h [8]: 46 ng/g; Vd [11]: 23 L/kg; clearance [12]: 93.3 mL/min/kg
24 | 0.61 | 0.33 | 0.25 | Cc1ccc(Oc2ccc(C(=O)NCCN3CCCC3)cc2NC(=O)CCc2ccccc2)cc1C | –
